The results in this text go back to US12084523B2, “Ubiquitin high affinity cyclic peptides and methods of use thereof” (TECHNION RESEARCH & DEVELOPMENT FOUNDATION LIMITED, priority 2018, dated 2024).

In test [1] the target is T1, ^K48Ub4 (Homo sapiens, UniProt P0CG47).
T1 construct: solid phase peptide synthesis of Ub monomers (modified as required); made in house
In words: SPR binding of cyclic peptides to K48-linked tetra-ubiquitin. The following applies: SPR, target ^K48Ub4. Here is the method: Surface Plasmon Resonance (SPR)
The interactions between cyclic peptides: U2i, U2ii, U4i, U4ix and Ub1, ^K48Ub2 and ^K48Ub4, were determined using BIACORE T100 instrument (GE healthcare) equipped with a biotin CAPture kit Series S chip. The buffer in all experiments contained 50 mM HEPES, pH 7.3, 150 mM NaCl, 0.05% Tween20, 2 mM DTT with 0.2% DMSO. Biotinylated Ub1, ^K48Ub2 and ^K48Ub4 were loaded to approximately equal molar amounts on the SPR chip, and various concentrations of cyclic peptides were flowed over at […] for 120 sec, before initiation of dissociation by flowing buffer over at […] for further 700 sec. Traces were fit to the simplest, two-state model for binding. Association was fit to a single exponential assuming pseudo-first order conditions, whereas the dissociation trace was fit to single exponential plus a drift term. Finally, due to the poor quality of the traces for U4ix binding ^K48Ub2, the amplitude of the association kinetic trace at different concentrations of peptide was fit to estimate the lower bound for KD.
Each peptide was flowed over Ub1, ^K48Ub2 and […] immobilized on SPR chips. There was no detectable binding to Ub1 for any of the peptides, as expected, as Ub1 binding was explicitly selected against during the RaPID protocol. […] However, Ub2i and Ub2ii also strongly bound ^K48Ub4, with a low apparent KD and an increased SPR response (FIG. 1E). This was consistent with a higher stoichiometry of binding to the tetramer, which could be explained by additional binding sites in ^K48Ub4. Indeed, the ^K48Ub2 structure can be superimposed twice on the ^K48Ub4 crystal structure (FIG. 10). […] However, similar to Ub2i and Ub2ii, Ub4i also bound ^K48Ub2. This was perhaps unsurprising, given the high sequence identity between Ub4i and Ub2i.

Test [2] deals with USP2. In words: In vitro deubiquitination assay, USP2 with K48-linked di-Ub. In kind it is biochemical. The following applies: di-Ub as the substrate. The procedure: (§1) In Vitro Deubiquitination Assay
(§2) In vitro deubiquitination reactions were performed in a Tris buffer (50 mM TRIS, 1 mM TCEP, pH 7.7), containing 2 μM ^K48Ub2/4, then the specific DUB (50 mM Tris, 0.5 mM EDTA, 1 mM TCEP and 0.5 mg/ml ovalbumin, pH 7.5) was added. The reaction mixtures were incubated at 37° C. and at the indicated time points the reactions were stopped by taking aliquots and mixed them with 3× sample buffer and boiling. The same amounts were loaded on 14% SDS-PAGE, electro-blotted to nitrocellulose membrane and probed with an anti-Ub antibody. Bands were quantified with Image Quant LAS 4000 (GE Healthcare).
(§3) The inventors further chose to examine the effect of these cyclic peptides on two DUBs: OTUB1, a K48-linkage chain specific DUB, and USP2, which cleaves most Ub chains without specificity, using K48-linked di- and tetra-Ub chains as substrates.

For test [3], the system named is USP2. Kind of test: In vitro deubiquitination assay, USP2 with K48-linked tetra-Ub. The following applies: tetra-Ub chain, after removal of the distal Ub (tri-Ub). In kind it is biochemical. The procedure: as §1, §2, §3
Test [4] has as its system 26S proteasome. In words: In vitro proteasome degradation assay of HA-α-globin-K48-linked tetra-Ub. The settings on record: 5.3 μM peptide. It is filed as biochemical.
Test [5] concerns HeLa cells. In kind it is cell-based, human. The following applies: MTT. The procedure: Cell Viability Assays and Kinetic Experiments In order to assess the effect of the cyclic peptides on Hela cells, toxicity was determined using the MTT assay. Equal amounts of cells (8,000 cells/well) were plated in 96-well plates in triplicate. After 24 hours, attached cells were exposed to increasing concentrations of the cyclic peptides for another 24 hours. […] Optical density was recorded at 590 nm with a reference measurement at 630 nm.

Test [6] has as its system HeLa cells. Kind of test: Annexin V-FITC FACS apoptosis analysis. The settings on record: 10 μM, 24 h and 48 h. It is filed as cell-based, human. Here is the method:
Fluorescence-Activated Cell Sorting (FACS) Analysis
Induction of apoptosis in Hela cells by treatment with cyclic peptides were determined after 24 and 48 hours incubation in a dose dependent manner, using annexin V-FITC apoptosis detection kit (BD Biosciences) according to the manufacturer s protocol. Two (2)×10^5 cells/well were seeded in 6-well plates and treated with an inhibitor for 24/48 hours in a dose dependent manner. The increase in fluorescence, which indicates the apoptosis level in the treated cells, were monitored using flow cytometry and compared to untreated cells containing DMSO as a negative control and MG132 as a positive control.
Given that Ub4ix has a pronounced inhibitory effect on the UPS system, the inventors further wanted to examine whether it inhibit cell growth and induce apoptosis in cancer cells. […] The effects of the cyclic peptides on apoptosis were evaluated using FACS analysis.

The subject of test [7] is Ub-conjugates in HeLa cells. In words: Western blot of cellular Ub-conjugates. It is filed as cell-based, human. The procedure:
(§4) FIGS. 5A-5F are images and graphs showing the uptake of Ub4ix by living cells and its cellular effect. (5A) is an image of the structure of fluorescein-5-maleimide-Ub4ix. (5B) is micrographs of HeLa cells incubated in the presence of DMSO (Negative control) or fluorescein-5-maleimide-Ub4ix cyclic peptide (20 μM). Internalization of the peptide into the cells was monitored at the indicated time points. Ub4ix induced the accumulation of Ub-conjugates, as a result of proteolysis inhibition. (5C) is an image of a western blot analysis of ubiquitinated proteins from HeLa cells which were incubated in the presence of Ub4ix, fluorescein-5-maleimide-Ub4ix, or MG132 for the indicated time-periods. Cells were lysed, resolved using SDS-PAGE, proteins were transferred to a nitrocellulose membrane, and the membrane was blotted using an antibody against Ub-conjugates (Ub conj), and Actin. (5D) is a graph of radio-labeled proteins from HeLa cells which were labeled with radioactive S-Met and S-Cys and were then chased for 4 hours in “cold” media. Cells were either non-treated (Control), or incubated in the presence of DMSO, Ub4ix, or MG132, at the indicated concentrations. Radioactivity levels, resulting from protein breakdown during the chase phase, were measured using a scintillation counter. […]

Test [8] deals with cellular protein breakdown in HeLa cells. In words: Radioactive pulse and chase, degradation-inhibition assay. It is filed as cell-based, human. The following applies: 4 h chase, vs non-treated or DMSO. The procedure:
Radioactive Pulse and Chase
For degradation-inhibition assays, cells were labeled with ^35S-methionine and cysteine (20 μCi) for 16 hours, followed by a chase in cold medium for 4 hours, in the presence of DMSO, proteasome inhibitor MG132, or Ub4ix. Media were then collected, and amino acids were extracted using TCA precipitation. Radioactive readings were measured using a scintillation counter.
In order to directly measure the effect of Ub4ix on proteolysis, the inventors employed radiolabeling of cellular proteins, followed by a chase experiment in the presence of either Ub4ix or the proteasome inhibitor MG132. […] The inventors validated this inhibitory effect on protein breakdown with known proteasomal substrates, the proteins p53, and p27, bona fide substrates of the UPS.

For test [9], the system named is p53 and p27 in HeLa cells. Kind of test: Western blot of proteasomal substrates p53 and p27. It is filed as cell-based, human. Here is the method:
as §4

Test [10] deals with protein synthesis in HeLa cells. Kind of test: Radioactive pulse assay of protein synthesis. In kind it is cell-based, human. The following applies: 35S-Met/Cys incorporation. The procedure:
HeLa cells were incubated with either DMSO, ribosomal inhibitor cycloheximide (CHX), or Ub4ix. After 4 hours, media were replaced with media containing radioactive Methionine and Cysteine, and cells where pulsed for 4 hours. Cells were thoroughly washed, proteins were extracted from the cells, and the radioactive readings of each sample were measured using a scintillation counter, indicating the extent of incorporation of radiolabeled Methionine and Cysteine into newly synthesized proteins.
For the assay of inhibitions of protein synthesis, cells were incubated with DMSO, ribosomal inhibitor cycloheximide (CHX), or Ub4ix. After 4 hours, media were replaced with medium containing ^35S-methionine and cysteine (20 μCi) and cells where pulsed for 4 hours. Plates were extensively washed with ice-cold PBS and proteins were extracted from cells using trichloroacetic acid (TCA) precipitation. The radioactive readings were measured using a scintillation counter.

In [1], `CC[C@H](C)[C@@H]1NC(=O)[C@H](Cc2c[nH]c3ccccc23)NC(=O)[C@H](Cc2c[nH]c3ccccc23)NC(=O)[C@H](CC(=O)O)NC(=O)CNC(=O)[C@H](CO)NC(=O)[C@H](CC(=O)O)NC(=O)[C@H](CC(=O)O)NC(=O)[C@H](CC(C)C)NC(=O)[C@H](Cc2ccc(O)cc2)NC(=O)[C@H](CC(C)C)NC(=O)[C@@H](Cc2c[nH]c3ccccc23)NC(=O)CSC[C@@H](C(=O)NCC(N)=O)NC1=O` [Ub4ix] had an off-rate (koff) of 0.021 s⁻¹ and a kon of 3.52e+06 M⁻¹ s⁻¹. Further, the “inhibition of USP2” value in [2] is listed as “minimal inhibition”. For the same compound, in test [3], the “inhibition of USP2” value is listed as “strong inhibition”. For the same compound, the “inhibition of proteasomal degradation of α-globin-K48-linked tetra-Ub” value in test [4] is “clear inhibition”. Further, the “suppression of cell growth” value in [5] is listed as “most effective”. The apoptosis entry in [6] is listed as “clear increase in apoptosis”. In test [7], the “cellular level of Ub-conjugates” value is on record as “elevation in Ub-conjugates”. The protein breakdown entry in [8] is recorded as “markedly reduced”. In addition, the “p53 and p27 levels” value in test [9] is “accumulated over time”. The “effect on protein synthesis” value in test [10] is “does not interfere with protein synthesis”.
